Source: patent publication US20250171459A1, “2-METHYL-4',5'-DIHYDROSPIRO[PIPERIDINE-4,7'-THIENO[2,3-C]PYRAN] DERIVATIVES AS INHIBITORS OF APOL1 AND METHODS OF USING SAME” (Vertex Pharmaceuticals Incorporated, priority 2022, published 2025)

Biological target: T1, APOL1 (Homo sapiens, UniProt O14791)
T1 sequence (O14791 1-398 S342G/I384M): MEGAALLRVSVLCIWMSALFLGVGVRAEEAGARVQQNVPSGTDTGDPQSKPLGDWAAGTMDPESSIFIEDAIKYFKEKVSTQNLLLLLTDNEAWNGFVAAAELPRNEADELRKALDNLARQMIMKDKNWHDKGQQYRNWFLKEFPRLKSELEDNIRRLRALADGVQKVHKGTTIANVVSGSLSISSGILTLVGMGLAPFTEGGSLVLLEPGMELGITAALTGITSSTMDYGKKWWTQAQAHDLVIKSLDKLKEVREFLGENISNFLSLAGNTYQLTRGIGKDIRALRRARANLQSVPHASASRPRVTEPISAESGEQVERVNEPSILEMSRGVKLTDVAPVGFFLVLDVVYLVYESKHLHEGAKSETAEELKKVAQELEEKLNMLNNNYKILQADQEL
Experiment: MultiTox-Fluor Multiplex Cytotoxicity Assay in tet-inducible APOL1 T-REx-HEK293 cells (cell rescue, ratio of dead to live cells)
Format: cell-based
Conditions: tet-inducible transgenic APOL1 T-REx-HEK293 cell lines, 50 ng/mL tet, 24 hours; read-out: IP50 (i.e., IC50 for cell proliferation)
Summary of the method: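 T-REx-HEK293 cells with tet-inducible APOL1 were treated with compound (10 μM top, 10-point 3-fold dilution, duplicate) plus 50 ng/mL tetracycline for 24 h at 37° C, in DMEM with 2% tet-free FBS. MultiTox-Fluor protease signals gave a dead/live ratio, normalized to no tet (100% viability) and tet alone (0%).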

Row | Structure (SMILES) | IC50
1 | C[C@H]1C[C@@]2(CCN1Cc1cccc(OCCO)c1)OCCc1c2sc(Cl)c1CO [Compound 725] | 100 to 500 nM
2 | C[C@H]1C[C@@]2(CCN1Cc1ccc(F)cn1)OCCc1c2sc(Cl)c1CO [Compound 726] | 500 to 1000 nM
3 | COc1cncc(CN2CC[C@]3(C[C@@H]2C)OCCc2c3sc(Cl)c2CO)c1 [Compound 727] | 100 to 500 nM
4 | C[C@H]1C[C@@]2(CCN1Cc1cnc(N3CCOCC3)nc1)OCCc1c2sc(Cl)c1CO [Compound 728] | < 100 nM
5 | COc1ncc(CN2CC[C@]3(C[C@@H]2C)OCCc2c3sc(Cl)c2CO)cn1 [Compound 729] | < 100 nM
6 | CNC(=O)c1cccc(CN2CC[C@]3(C[C@@H]2C)OCCc2c3sc(Cl)c2CO)c1 [Compound 730] | 100 to 500 nM
7 | Cc1cncc(N2CCC(CN3CC[C@]4(C[C@@H]3C)OCCc3c4sc(Cl)c3CO)CC2)n1 [Compound 731] | 500 to 1000 nM
8 | Cc1ccc(CN2CC[C@]3(C[C@@H]2C)OCCc2c3sc(Cl)c2CO)c(C)n1 [Compound 732] | 500 to 1000 nM
9 | CCc1ncc(CN2CC[C@]3(C[C@@H]2C)OCCc2c3sc(Cl)c2CO)cn1 [Compound 733] | 100 to 500 nM
10 | C[C@H]1C[C@@]2(CCN1Cc1ccc(S(C)(=O)=O)nc1)OCCc1c2sc(Cl)c1CO [Compound 734] | 100 to 500 nM
11 | C[C@H]1C[C@@]2(CCN1Cc1ccncc1F)OCCc1c2sc(Cl)c1CO [Compound 735] | 500 to 1000 nM
12 | Cc1ncccc1CN1CC[C@]2(C[C@@H]1C)OCCc1c2sc(Cl)c1CO [Compound 736] | 500 to 1000 nM
13 | C[C@H]1C[C@@]2(CCN1Cc1cnccn1)OCCc1c2sc(Cl)c1CO [Compound 737] | 500 to 1000 nM
14 | Cc1ncc(CN2CC[C@]3(C[C@@H]2C)OCCc2c3sc(Cl)c2CO)cn1 [Compound 738] | 100 to 500 nM
15 | Cc1cccc(CN2CC[C@]3(C[C@@H]2C)OCCc2c3sc(Cl)c2CO)n1 [Compound 739] | 500 to 1000 nM
16 | C[C@H]1C[C@@]2(CCN1Cc1ncn3ccccc13)OCCc1c2sc(Cl)c1CO [Compound 740] | 500 to 1000 nM
17 | COc1cc(CN2CC[C@]3(C[C@@H]2C)OCCc2c3sc(Cl)c2CO)ccc1OCC(N)=O [Compound 742] | < 100 nM
18 | C[C@H]1C[C@@]2(CCN1Cc1ccc(C(=O)N(C)C)cc1)OCCc1c2sc(Cl)c1CO [Compound 743] | 100 to 500 nM
19 | COc1ccc(CN2CC[C@]3(C[C@@H]2C)OCCc2c3sc(Cl)c2CO)cc1OCC(N)=O [Compound 744] | < 100 nM
20 | COCCc1ncc(CN2CC[C@]3(C[C@@H]2C)OCCc2c3sc(Cl)c2CO)cn1 [Compound 745] | 100 to 500 nM

Row | Structure (SMILES) | IC50
21 | C[C@H]1C[C@@]2(CCN1CC1(C)COC1)OCCc1c2sc(Cl)c1CO [Compound 746] | 500 to 1000 nM
22 | C[C@H]1C[C@@]2(CCN1CC1CCN(S(C)(=O)=O)CC1)OCCc1c2sc(Cl)c1CO [Compound 748] | 100 to 500 nM
23 | C[C@H]1C[C@@]2(CCN1Cc1cnn(CCS(C)(=O)=O)c1)OCCc1c2sc(Cl)c1CO [Compound 754] | < 100 nM
24 | C[C@H]1C[C@@]2(CCN1Cc1ccc(F)cc1)OCCc1c2sc(Cl)c1CO [Compound 755] | 100 to 500 nM
25 | C[C@H]1C[C@@]2(CCN1Cc1cccc(F)c1)OCCc1c2sc(Cl)c1CO [Compound 756] | 100 to 500 nM
26 | C[C@H]1C[C@@]2(CCN1Cc1cccnc1)OCCc1c2sc(Cl)c1CO [Compound 757] | < 100 nM
27 | C[C@H]1C[C@@]2(CCN1Cc1ccccn1)OCCc1c2sc(Cl)c1CO [Compound 758] | 500 to 1000 nM
28 | CC(C)Cn1cc(CN2CC[C@]3(C[C@@H]2C)OCCc2c3sc(Cl)c2CO)cn1 [Compound 759, [(2′S, 7R)-2-chloro-1′-[(1-isobutylpyrazol-4-yl)methyl]-2′-methyl-spiro[4,5-dihydrothieno[2,3-c]pyran-7,4′-piperidine]-3-yl]methanol] | 100 to 500 nM
29 | CCn1cc(CN2CC[C@]3(C[C@@H]2C)OCCc2c3sc(Cl)c2CO)cn1 [Compound 760] | 100 to 500 nM
30 | C[C@H]1C[C@@]2(CCN1Cc1cnn(CC3CCOCC3)c1)OCCc1c2sc(Cl)c1CO [Compound 761] | 100 to 500 nM
31 | COCc1c(Cl)sc2c1CCO[C@@]21CCN(Cc2cnn(CCS(C)(=O)=O)c2)[C@@H](C)C1 [Compound 762, (2′S, 7R)-2-chloro-3-(methoxymethyl)-2′-methyl-1′-[[1-(2-methylsulfonylethyl)pyrazol-4-yl]methyl]spiro[4,5-dihydrothieno[2,3-c]pyran-7,4′-piperidine]] | < 100 nM
32 | COCc1c(C(F)F)sc2c1CCO[C@@]21CCN(Cc2cnn(CCS(C)(=O)=O)c2)[C@@H](C)C1 [Compound 763, (2′S, 7R)-2-(difluoromethyl)-3-(methoxymethyl)-2′-methyl-1′-[[1-(2-methylsulfonylethyl)pyrazol-4-yl]methyl]spiro[4,5-dihydrothieno[2,3-c]pyran-7,4′-piperidine]] | < 100 nM
33 | C[C@H]1C[C@@]2(CCN1Cc1cnn(CCS(C)(=O)=O)c1)OCCc1c2sc(C(F)F)c1CO [Compound 764, [(2′S, 7R)-2-(difluoromethyl)-2′-methyl-1′-[[1-(2-methylsulfonylethyl)pyrazol-4-yl]methyl]spiro[4,5-dihydrothieno[2,3-c]pyran-7,4′-piperidine]-3-yl]methanol] | < 100 nM
34 | Cc1sc2c(c1CO)CCO[C@@]21CCN(Cc2cnn(CCS(C)(=O)=O)c2)[C@@H](C)C1 [Compound 765, [(2′S, 7R)-2,2′-dimethyl-1′-[[1-(2-methylsulfonylethyl)pyrazol-4-yl]methyl]spiro[4,5-dihydrothieno[2,3-c]pyran-7,4′-piperidine]-3-yl]methanol] | < 100 nM
35 | C[C@H]1C[C@@]2(CCN1Cc1cccc(Cl)c1O)OC[C@H](O)c1cc(Cl)sc12 [Compound 766, (2′S,4R,7R)-2-chloro-1′-[(3-chloro-2-hydroxy-phenyl)methyl]-2′-methyl-spiro[4,5-dihydrothieno[2,3-c]pyran-7,4′-piperidine]-4-ol] | 500 to 1000 nM
36 | C[C@H]1C[C@@]2(CCN1Cc1cnn(CCS(C)(=O)=O)c1)OCC(O)c1cc(Cl)sc12 (stereo partly drawn) [Compound 767, (2′S,7R)-2-chloro-2′-methyl-1′-[[1-(2-methylsulfonylethyl)pyrazol-4-yl]methyl]spiro[4,5-dihydrothieno[2,3-c]pyran-7,4′-piperidine]-4-ol] | < 100 nM
37 | Cc1ncccc1CN1CC[C@]2(C[C@@H]1C)OC[C@H](O)c1cc(Cl)sc12 [Compound 770] | 100 to 500 nM
38 | C[C@H]1C[C@@]2(CCN1Cc1cccc(OCC(N)=O)c1)OC[C@H](O)c1cc(Cl)sc12 [Compound 771] | 100 to 500 nM
39 | COc1ccc(CN2CC[C@]3(C[C@@H]2C)OC[C@H](O)c2cc(Cl)sc23)cc1OCC(N)=O [Compound 772] | < 100 nM
40 | COc1cc(OCC(N)=O)ccc1CN1CC[C@]2(C[C@@H]1C)OC[C@H](O)c1cc(Cl)sc12 [Compound 773] | < 100 nM

Row | Structure (SMILES) | IC50
41 | C[C@H]1C[C@@]2(CCN1Cc1cc(F)cc(F)c1O)OC[C@H](O)c1cc(Cl)sc12 [Compound 774] | 500 to 1000 nM
42 | C[C@H]1C[C@@]2(CCN1Cc1ccc(OCCO)cc1)OC[C@H](O)c1cc(Cl)sc12 [Compound 775] | < 100 nM
43 | COc1cc(CN2CC[C@]3(C[C@@H]2C)OC[C@H](O)c2cc(Cl)sc23)ccc1OCC(N)=O [Compound 776] | < 100 nM
44 | C[C@H]1C[C@@]2(CCN1Cc1ccc(N3CCCC3=O)cc1)OC[C@H](O)c1cc(Cl)sc12 [Compound 777] | < 100 nM
45 | C[C@H]1C[C@@]2(CCN1Cc1cnccn1)OC[C@H](O)c1cc(Cl)sc12 [Compound 778] | 500 to 1000 nM
46 | C[C@H]1C[C@@]2(CCN1CCC1CCOCC1)OC[C@H](O)c1cc(Cl)sc12 [Compound 779] | 500 to 1000 nM
47 | C[C@H]1C[C@@]2(CCN1Cc1ccc(NS(C)(=O)=O)cc1)OC[C@H](O)c1cc(Cl)sc12 [Compound 780] | < 100 nM
48 | Cc1cc(CN2CC[C@]3(C[C@@H]2C)OC[C@H](O)c2cc(Cl)sc23)nn1C [Compound 781] | 500 to 1000 nM
49 | COc1cccc(CN2CC[C@]3(C[C@@H]2C)OC[C@H](O)c2cc(Cl)sc23)n1 [Compound 782] | 500 to 1000 nM
50 | COc1cnc(CN2CC[C@]3(C[C@@H]2C)OC[C@H](O)c2cc(Cl)sc23)cn1 [Compound 783] | 100 to 500 nM
51 | C[C@H]1C[C@@]2(CCN1Cc1cncc(F)c1)OC[C@H](O)c1cc(Cl)sc12 [Compound 784] | 100 to 500 nM
52 | CC(O)CCN1CC[C@]2(C[C@@H]1C)OC[C@H](O)c1cc(Cl)sc12 (stereo partly drawn) [Compound 785] | 500 to 1000 nM
53 | C[C@H]1C[C@@]2(CCN1Cc1cn3c(n1)CCC3)OC[C@H](O)c1cc(Cl)sc12 [Compound 786] | 500 to 1000 nM
54 | C[C@H]1C[C@@]2(CCN1Cc1ccnn1C)OC[C@H](O)c1cc(Cl)sc12 [Compound 787] | 500 to 1000 nM
55 | Cc1ccc(CN2CC[C@]3(C[C@@H]2C)OC[C@H](O)c2cc(Cl)sc23)c(C)n1 [Compound 788] | 100 to 500 nM
56 | C[C@H]1C[C@@]2(CCN1CC1CCOCC1)OC[C@H](O)c1cc(Cl)sc12 [Compound 789] | 500 to 1000 nM
57 | C[C@H]1C[C@@]2(CCN1Cc1cn(-c3ncccn3)cn1)OC[C@H](O)c1cc(Cl)sc12 [Compound 790] | 100 to 500 nM
58 | C[C@H]1C[C@@]2(CCN1Cc1ccc(O)nc1)OC[C@H](O)c1cc(Cl)sc12 [Compound 791] | < 100 nM
59 | C[C@H]1C[C@@]2(CCN1Cc1ccc(F)cn1)OC[C@H](O)c1cc(Cl)sc12 [Compound 792] | 100 to 500 nM
60 | Cc1ncc(CN2CC[C@]3(C[C@@H]2C)OC[C@H](O)c2cc(Cl)sc23)cn1 [Compound 793] | 100 to 500 nM
